{"source": "patent US20250276107A1", "about": "“HYDROGEL SYSTEMS AND METHODS FOR TREATING FISTULA AND OTHER INDICATIONS” (Terasaki Institute for Biomedical Innovation, priority 2024, published 2025)", "tested_on": "red blood cells (RBCs)", "assay": "Hemolysis test with diluted whole human blood", "assay_type": "cell-based", "settings": "2 h, physiological temperature", "description": "In the development of bioadhesives, it is important to assess hemocompatibility to evaluate whether the materials damage the blood cells. For this purpose, a standard hemolysis test was performed by exposing crosslinked hydrogels to diluted sodium citrate-treated whole human blood for 2 h at physiological temperature. The presence of a toxic effect was assessed visually by observing the appearance of a red-colored supernatant after centrifugation, indicating the release of hemoglobin from ruptured red blood cells (RBCs). […] After incubation with hydrogels, intact RBCs were efficiently sedimented through centrifugation, similar to the saline negative control. […] The disruption of RBCs was further assessed through colorimetric analysis, with the calculated percent hemolysis induced by the hydrogels presented in FIG. 6A(II). The hemolysis level of the hydrogels at all tested PDA concentrations remained below the acceptable limit (≤5%).", "data": [{"substance": "Triton X-100", "values": [{"measurement": "supernatant colour after centrifugation (visual hemolysis)", "value": "reddish supernatant"}]}]}
